From article PMC12062745, “The immunostimulatory activity of Epimedium flavonoids involves toll-like receptor 7/8” (Frontiers in Pharmacology, 2025)

Columns and labels:
Assay in all cases: SPR (Biacore S200)
Format in all cases: binding
recombinant mouse TLR8 [1] = molecular target: T1, recombinant mouse TLR8 (Mus musculus, UniProt P58682); details: read-out: KD8
T1 construct: recombinant from Escherichia coli supernatant
T1 sequence (P58682 24-1032): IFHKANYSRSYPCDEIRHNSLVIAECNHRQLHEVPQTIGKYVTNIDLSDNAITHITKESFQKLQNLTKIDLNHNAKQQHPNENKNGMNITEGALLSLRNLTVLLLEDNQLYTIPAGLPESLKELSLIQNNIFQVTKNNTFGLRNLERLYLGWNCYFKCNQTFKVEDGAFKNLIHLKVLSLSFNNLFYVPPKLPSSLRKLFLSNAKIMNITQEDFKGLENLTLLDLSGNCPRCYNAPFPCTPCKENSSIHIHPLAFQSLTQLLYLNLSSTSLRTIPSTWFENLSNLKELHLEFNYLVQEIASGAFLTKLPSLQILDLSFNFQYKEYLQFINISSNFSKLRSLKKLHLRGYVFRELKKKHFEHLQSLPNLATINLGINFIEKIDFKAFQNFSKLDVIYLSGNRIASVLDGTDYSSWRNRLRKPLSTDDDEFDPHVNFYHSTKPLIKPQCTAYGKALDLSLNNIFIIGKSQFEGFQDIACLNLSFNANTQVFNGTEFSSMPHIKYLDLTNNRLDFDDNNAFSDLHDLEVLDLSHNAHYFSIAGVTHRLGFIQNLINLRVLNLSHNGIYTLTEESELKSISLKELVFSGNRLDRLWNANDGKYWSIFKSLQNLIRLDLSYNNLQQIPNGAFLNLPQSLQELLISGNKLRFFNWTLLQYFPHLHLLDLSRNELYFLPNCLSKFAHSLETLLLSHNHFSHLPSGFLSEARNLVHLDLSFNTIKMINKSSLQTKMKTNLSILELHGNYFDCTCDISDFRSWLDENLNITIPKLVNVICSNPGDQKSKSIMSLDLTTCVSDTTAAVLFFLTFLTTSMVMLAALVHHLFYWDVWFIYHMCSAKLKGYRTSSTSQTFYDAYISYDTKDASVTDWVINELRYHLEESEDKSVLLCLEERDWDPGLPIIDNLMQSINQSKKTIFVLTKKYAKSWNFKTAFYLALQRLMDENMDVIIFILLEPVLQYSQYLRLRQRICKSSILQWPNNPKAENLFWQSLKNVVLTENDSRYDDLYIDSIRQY

recombinant mouse TLR7 = molecular target: T2, recombinant mouse TLR7 (Mus musculus, UniProt P58681); details: 80 μM compound
T2 construct: recombinant from Escherichia coli supernatant
T2 sequence (P58681 27-1050): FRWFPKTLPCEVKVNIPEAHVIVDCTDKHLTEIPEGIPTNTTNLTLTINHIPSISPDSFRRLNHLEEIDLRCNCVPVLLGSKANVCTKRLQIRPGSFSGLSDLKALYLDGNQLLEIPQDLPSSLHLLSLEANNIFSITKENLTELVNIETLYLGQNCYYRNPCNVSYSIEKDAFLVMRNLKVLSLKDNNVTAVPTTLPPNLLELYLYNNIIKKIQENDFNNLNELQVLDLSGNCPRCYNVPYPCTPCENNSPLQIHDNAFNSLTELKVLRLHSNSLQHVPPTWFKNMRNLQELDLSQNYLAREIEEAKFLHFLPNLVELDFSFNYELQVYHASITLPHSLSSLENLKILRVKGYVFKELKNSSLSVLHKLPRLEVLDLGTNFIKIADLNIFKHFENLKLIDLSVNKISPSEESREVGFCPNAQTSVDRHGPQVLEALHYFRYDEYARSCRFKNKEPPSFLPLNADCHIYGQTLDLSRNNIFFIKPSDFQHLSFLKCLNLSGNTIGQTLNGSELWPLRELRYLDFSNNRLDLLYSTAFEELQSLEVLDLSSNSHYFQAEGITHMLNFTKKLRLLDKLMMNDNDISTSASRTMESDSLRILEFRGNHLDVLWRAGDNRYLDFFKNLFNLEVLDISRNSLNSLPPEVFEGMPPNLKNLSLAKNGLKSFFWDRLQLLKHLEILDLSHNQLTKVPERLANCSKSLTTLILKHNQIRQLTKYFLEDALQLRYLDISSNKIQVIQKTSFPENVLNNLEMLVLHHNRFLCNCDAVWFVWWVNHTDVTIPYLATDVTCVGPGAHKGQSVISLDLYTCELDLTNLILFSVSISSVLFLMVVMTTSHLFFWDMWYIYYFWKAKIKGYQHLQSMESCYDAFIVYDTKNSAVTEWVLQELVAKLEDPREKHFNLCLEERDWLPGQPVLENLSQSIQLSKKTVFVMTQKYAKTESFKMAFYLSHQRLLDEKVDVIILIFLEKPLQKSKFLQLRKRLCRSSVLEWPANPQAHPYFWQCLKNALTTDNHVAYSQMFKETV

recombinant mouse TLR8 [2] = molecular target: T1, recombinant mouse TLR8; details: 80 μM compound

Kd (recombinant mouse TLR8 [1]) [µM] | response value (RU) (recombinant mouse TLR8 [2]) | SMILES | SPR (Biacore S200) (recombinant mouse TLR7)
10.3 | – | COc1ccc(-c2oc3c(CC=C(C)C)c(O)cc(O)c3c(=O)c2O[C@@H]2O[C@@H](C)[C@H](O)[C@@H](O)[C@H]2O)cc1 [icariin II] | SPR analysis revealed that icariin II exhibited the highest binding response to TLR7
– | 43 | COc1ccc(-c2oc3c(CC=C(C)C)c(O[C@@H]4O[C@H](CO)[C@@H](O)[C@H](O)[C@H]4O)cc(O)c3c(=O)c2O)cc1 [icariin I] | –
